Data: patent US12377127B2, “Treatment for diseases caused by RNA virus SARS-CoV-2” (Amerimmune, LLC, priority 2020, dated 2025)

Key:
Caspase 1 [1] = target: T1, Caspase 1 (Homo sapiens, UniProt P29466); assay: Active caspase-1 by FAM-FLICA flow cytometry in PBMCs from Emricasan-treated COVID-19(+) whole blood (Example 7); assay type: cell-based; details: 1 μM
T1 construct: A Fam-FLICA probe specific for Caspase 1 was directly added to 50 μl PBMC; endogenous in cells; host or cells: PBMC (CD3-, CD3+, CD3+CD4+ lymphocytes) purified from human whole blood
T1 sequence (P29466 120-297 limits assumed): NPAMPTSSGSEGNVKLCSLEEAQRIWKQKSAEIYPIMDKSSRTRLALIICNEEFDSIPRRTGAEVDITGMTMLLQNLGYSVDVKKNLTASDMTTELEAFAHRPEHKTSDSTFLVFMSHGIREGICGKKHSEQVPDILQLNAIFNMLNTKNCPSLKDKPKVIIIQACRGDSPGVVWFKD
T1 sequence (P29466 317-404 limits assumed): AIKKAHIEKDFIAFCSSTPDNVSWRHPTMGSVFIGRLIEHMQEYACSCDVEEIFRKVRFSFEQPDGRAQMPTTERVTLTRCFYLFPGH
Experimental: Whole blood from COVID-19(+) patients was incubated either (A) without addition of Emricasan (Untreated) or (B) with Emricasan (Sigma Aldrich, MO, SML2227-5MG), 1 μM final concentration for 3.5 hours at room temperature (Treated). Following incubation with or without Emricasan, PBMCs were purified using an Accuspin System—Histopaque 1077 (Sigma Aldrich, MO, A6929) as per the manufacturer's instructions. Purified Treated and Untreated PBMCs were incubated with nigericin (Immunochemistry Technologies, MN) as per the manufacturer's instructions for 2 hours. A Fam-FLICA probe specific for Caspase 1 was directly added to 50 μl PBMC and then incubated for 1 hour at 37° C. PMBCs were washed with cell wash buffer (Immunochemistry Technologies, MN) to remove unbound FLICA probes. Washed PBMCs were FACS-sorted using CD45 PE-CY7 [H130], CD3 AF700 [UCHT1], CD4 PE [RPA-T4], CD45RO PerCP-EF710 [UCHL], and Viability Dye 780 (Thermo Fisher Scientific, Carlsbad, CA) to identify viable CD3−cells as well as CD3+ cells and CD3+ CD4+ T cells. Lymphocytes were identified using a standard gating schematic that incorporated gating of lymphocytes on a FSC/SSC plot and singlets on a FSC-A/FSC-H plot. Lymphocytes were further identified as CD45+ on a CD45/SSC plot and subsequent CD3−, CD3+, and CD3+ CD4+ cells were identified on a CD45+ CD3/CD4 plot.
In another experiment, whole blood was incubated with 1 μM Emricasan for 17 hours (overnight between 5 PM to 10 AM) at room temperature on a rocker. The same experiment described above to examine active caspase 1 in PBMCs was performed.

[2] = tested on: red blood cell (RBC) layer in the PBMC layer ("red ring"); assay type: cell-based, human; details: PBMCs from COVID-19 patient samples, 1 micromolar, room temperature, 17 hours
Caspase 1 [3] = target: T1, Caspase 1; assay: Ex vivo stimulation: active caspase-1 in CD4 T (T-helper) cells after whole blood incubation with caspase inhibitors (Example 9); assay type: cell-based; details: inhibitor 24 hrs, then with or without nigericin; for T-helper cell caspase-1 expression: COVID-19 whole blood samples
Experimental: Apoptosis and pyroptosis were measured by flow cytometry using fluorescent-labeled inhibitors of caspase probe assay (FLICA; Immunochemistry Technologies, Minneapolis, MN). As a control, PBMCs were stimulated with nigericin for 2 hours. FAM-FLICA probes specific for caspase-1 was added to 50 μl PBMC and incubated for 1h at 37° C. Cells were subsequently washed and stained for CD45 PE-CY7 [HI30], CD3 AF700 [UCHT1], CD4 PE [RPA-T4], CD45RO PerCP-EF710 [UCHL1], and Viability Dye 780 (Thermo Fisher Scientific, Carlsbad, CA). Samples were acquired on a 3 laser BD FACS Canto 10. CS&T beads (BD Bioscience, San Jose, CA) were acquired daily to ensure consistent performance of the Canto10. The CANTO10 utilized for this study was validated for T, B, NK, and dendritic cell immunophenotyping clinical diagnostic testing. Denovo FCS Express v6 clinical edition (De Novo Software, Pasadena, CA) was used for flow cytometric analyses.
Active caspase-1 in COVID-19+ patient samples. Whole blood from a COVID-19 positive patient was either (A) untreated or (B) treated with emricasan (1 μM, Sigma Aldrich, MO, SML2227-5MG) or selective caspase-1 inhibitor VX765 overnight at 37° C. in a water bath. Subsequently, PBMCs were purified (Accuspin System—Histopaque 1077; Sigma Aldrich, MO, A6929) and incubated with nigericin (Immunochemistry Technologies, MN) for 2h. A Fam-FLICA probe specific for active caspase-1 was added to 50 μl PBMC and then incubated for 1h at 37° C. PMBCs were washed with cell wash buffer (Immunochemistry Technologies, MN) and stained with CD45 PE-CY7 [H130], CD3 AF700 [UCHT1], CD4 PE [RPA-T4], CD45RO PerCP-EF710 [UCHL1], and Viability Dye 780 (Thermo Fisher Scientific, Carlsbad, CA). Lymphocytes were identified using a standard gating schematic that incorporated gating of lymphocytes on an FSC/SSC plot and singlets on a FSC-A/FSC-H plot. Lymphocytes were further identified as CD45+ on a CD45/SSC plot and subsequent CD3−, CD3+ and CD3+CD4+ cells were identified on a CD45+ CD3/CD4 plot. Shown are the active caspase-1 MFI and % positive for the three cellular populations indicated. […]

caspase-3 = target: T2, caspase-3 (Homo sapiens, UniProt P42574); assay: Caspase-3 in RBCs incubated with patient plasma (Example 9); assay type: cell-based
T2 construct: EMR suppressed the caspase-3 up-regulation in the COVID-19 plasma incubated samples; endogenous in cells; host or cells: human red blood cells (healthy subjects' RBCs incubated with patient plasma)
T2 sequence (P42574 29-277): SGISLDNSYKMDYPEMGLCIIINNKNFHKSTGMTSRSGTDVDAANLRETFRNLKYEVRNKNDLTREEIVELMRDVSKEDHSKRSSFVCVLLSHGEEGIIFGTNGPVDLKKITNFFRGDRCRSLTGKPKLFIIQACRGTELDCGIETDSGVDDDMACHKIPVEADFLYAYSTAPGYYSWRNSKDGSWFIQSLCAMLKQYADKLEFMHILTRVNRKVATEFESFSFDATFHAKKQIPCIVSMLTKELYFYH
Experimental: Plasma was separated from whole blood following centrifugation at 960 RCF. Cells (RBC and WBC) were either incubated at 37° C. alone or in the presence of trypsin for 1 hour then washed with 10 packed cell volumes of RPMI 1640 incomplete medium. Plasma was either held at room temperature (18-25° C.) or heat inactivated at 56° C. for 1 hr. Plasma was added back to the RBC/WBC in a 1:1 ratio and incubated overnight, rocking at room temperature.
Cellular caspases are not limited to immune cells. […] In the process of Ficoll separation, a layer of RBCs contaminating the PBMC layer was observed, which layer was universally present in all samples from COVID-19 individuals (FIG. 6A). This finding was also present in up to 80% of COVID-19 convalescent subjects. Plasma from acutely infected subjects induced a similar finding when incubated overnight with plasma depleted whole blood of healthy patients.

[4] = COVID-19(+) whole blood, 3.5 hours, room temperature, nigericin 2 hours, CD3-, CD3+, CD3+CD4+ cells, vs untreated, p≤0.005

Row | Structure (SMILES) | active caspase-1 % positive cells (Caspase 1 [1]; [4]) | active caspase-1 MFI (Caspase 1 [1]; [4]) | inhibition of nigericin-induced Caspase-1 activity (Caspase 1 [1]; whole blood, 17 hours (overnight), room temperature on a rocker, 3 samples from COVID-19 patients) | "red ring" (RBC layer contaminating PBMCs) [2] | T-helper cell caspase-1 expression (Caspase 1 [3]) | T-helper cell caspase-1 upregulation (Caspase 1 [3]; healthy subjects' whole blood) | RBC caspase-3 up-regulation (caspase-3; healthy subjects' RBCs incubated with COVID-19 plasma) | RBC caspase-3 baseline expression levels (caspase-3; influenza-plasma incubated samples)
1 | C[C@H](NC(=O)C(=O)Nc1ccccc1C(C)(C)C)C(=O)N[C@@H](CC(=O)O)C(=O)COc1c(F)c(F)cc(F)c1F [Emricasan, (3S)-3-{[(2S)-2-{[2-(2-tert-butylanilino)-2-oxoacetyl]amino}propanoyl]amino}-4-oxo-5-(2,3,5,6-tetrafluorophenoxy)pentanoic acid] | significant reduction | significant reduction | seen in only ⅓ sample | decrease | suppressed | prevented its upregulation | suppressed | did not change
2 | CCO[C@@H]1OC(=O)C[C@@H]1NC(=O)[C@@H]1CCCN1C(=O)[C@@H](NC(=O)c1ccc(N)c(Cl)c1)C(C)(C)C [VX765, Belnacasan] | – | – | – | – | did not show a strong similar suppressive effect | – | – | –
